Assay results taken from patent US8431596B2 (Cancer Research Technology Limited, priority 2007, dated 2013).

Target: T1, AXL (human catalytic domain) (Homo sapiens, UniProt P30530)
T1 construct: purchased Upstate Ltd. 14-512
T1 sequence (P30530 473-894): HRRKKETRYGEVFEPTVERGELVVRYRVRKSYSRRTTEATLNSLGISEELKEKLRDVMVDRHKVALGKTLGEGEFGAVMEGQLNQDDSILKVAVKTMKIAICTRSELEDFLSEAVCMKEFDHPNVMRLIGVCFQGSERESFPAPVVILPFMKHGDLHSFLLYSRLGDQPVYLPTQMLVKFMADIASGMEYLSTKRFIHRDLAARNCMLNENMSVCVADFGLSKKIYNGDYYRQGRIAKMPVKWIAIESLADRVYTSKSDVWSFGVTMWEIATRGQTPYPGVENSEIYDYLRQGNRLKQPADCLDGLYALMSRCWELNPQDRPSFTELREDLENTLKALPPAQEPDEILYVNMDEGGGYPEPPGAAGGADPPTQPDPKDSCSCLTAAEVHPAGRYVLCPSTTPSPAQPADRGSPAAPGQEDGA
Experiment: AXL (human catalytic domain) Enzyme Activity Assay (IMAP fluorescence polarisation)
Format: biochemical
Summary of the method: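 IMAP FP readout (Ex485/Em535, after overnight binding) measured inhibition of the human AXL catalytic domain (aa473-894, 15 nM final) acting on 100 nM 5FAM-CSK-tide at 150 μM ATP, equal to KM. Reactions ran 60 min at room temperature in pH 7.0 HEPES buffer; IC50 from 10-point curves.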

[1] = further data set (WW-001 through WW-169, XX-001 through XX-469, YY-001 through YY-016, ZZ-001 through ZZ-003), 150 μM ATP
[2] = first data set, recombinant AXL isoform 1 aa473-894, 150 μM ATP

IC50 [1] [nM]	IC50 [2] [nM]	Compound
100 to 1000		c1cc2nc(Nc3ccc(OCCN4CCCC4)cc3)nn2c(-c2ccc3c(c2)OCCO3)n1 [YY-010]
100 to 1000		c1cc(-c2ccoc2)cc(-c2cccc3nc(Nc4ccc(OCCN5CCCC5)cc4)nn23)c1 [XX-165]
100 to 1000		F[C@H]1CCN(CCOc2ccc(Nc3nc4cccc(-c5ccc6c(c5)OCCO6)n4n3)cc2)C1 [XX-157]
100 to 1000		CCN(CC)CCNc1cccc(Nc2nc3cccc(-c4ccc5c(c4)OCCO5)n3n2)c1 [XX-128]
100 to 1000		Clc1cc(Cl)cc(-c2cccc3nc(Nc4ccc(OCCN5CCCC5)cc4)nn23)c1 [XX-298]
≤ 100	< 1000	COc1cc(Nc2nc3cccc(-c4ccc5c(c4)OCCO5)n3n2)ccc1OCCN1CCCC1 [XX-001]
1000 to 10000		O=C(NCc1cccc(-c2cccc3nc(Nc4ccc(OCCN5CCCC5)cc4)nn23)c1)Nc1cccc(Cl)c1 [XX-348, 1-(3-Chloro-phenyl)-3-(3-{2-[4-(2-pyrrolidin-1-yl-ethoxy)-phenylamino]-[1,2,4]triazolo[1,5-a]pyridin-5-yl}-benzyl)-urea]
≤ 100	< 1000	COc1ccc(-c2cccc3nc(Nc4ccc(OCCN(C)CCO)cc4)nn23)cc1 [XX-065]
100 to 1000		c1ccc(-c2cc(CNc3cccc(-c4cccc5nc(Nc6ccc(OCCN7CCCC7)cc6)nn45)c3)no2)cc1 [XX-445]
1000 to 10000	1000 to 10000	CC(C)(C)c1ccc(-c2cccc3nc(NC(=O)C4CC4)nn23)cc1 [WW-139]
100 to 1000		Cc1cc(C)cc(-c2cccc3nc(Nc4ccc(OCCN5CCCC5)cc4)nn23)c1 [XX-292]
100 to 1000		c1cc(-c2ccco2)cc(-c2cccc3nc(Nc4ccc(OCCN5CCCC5)cc4)nn23)c1 [XX-168]
100 to 1000		c1cc(OCc2ccncc2)cc(-c2cccc3nc(Nc4ccc(OCCN5CCCC5)cc4)nn23)c1 [XX-332]
100 to 1000		FC(F)(F)c1ccc(CNc2cccc(-c3cccc4nc(Nc5ccc(OCCN6CCCC6)cc5)nn34)c2)o1 [XX-448]
1000 to 10000		c1ccc(CCNc2ccc(-c3cccc4nc(Nc5ccc(OCCN6CCCC6)cc5)nn34)cc2)cc1 [XX-265]
100 to 1000		C#CCOc1ccc(-c2cccc3nc(Nc4ccc(OCCN5CCCC5)cc4)nn23)cc1 [XX-148]
100 to 1000		Cn1cc(-c2ccc(-c3cccc4nc(Nc5ccc(OCCN6CCCC6)cc5)nn34)cc2)cn1 [XX-149]
100 to 1000		Clc1cccc(SCCn2cc(-c3cccc4nc(Nc5ccc(OCCN6CCCC6)cc5)nn34)cn2)c1 [XX-431]
100 to 1000		COc1ccc(-c2cccc3nc(Nc4ccc(OCCN5CCCC5)cc4)nn23)cc1F [XX-240]
1000 to 10000		CC(C)Cn1cc(-c2cccc3nc(Nc4ccc(OCCN5CCCC5)cc4)nn23)cn1 [XX-274]
1000 to 10000		CC(C(=O)Nc1cccc(-c2cccc3nc(Nc4ccc(OCCN5CCCC5)cc4)nn23)c1)c1cccc(Cl)c1 (stereo not drawn) [XX-228]
100 to 1000		CCOc1ccc(-c2nccc3nc(Nc4ccc(OCCN5CCCC5)c(OC)c4)nn23)cc1 [YY-006]

IC50 [1] [nM]	IC50 [2] [nM]	Compound
100 to 1000		COc1ccc(CNc2ccc(-c3cccc4nc(Nc5ccc(OCCN6CCCC6)cc5)nn34)cc2)cc1 [XX-266]
100 to 1000	< 1000	COc1ccc(-c2cccc3nc(Nc4cccc(OCCn5ccnc5)c4)nn23)cc1 [XX-015, [3-(2-Imidazol-1-yl-ethoxy)-phenyl]-[5-(4-methoxy-phenyl)-[1,2,4]triazolo[1,5-a]pyridin-2-yl]-amine]
1000 to 10000	1000 to 10000	O=C(Nc1nc2cccc(-c3ccccc3O)n2n1)C1CC1 [WW-037]
100 to 1000	< 1000	O=C(Nc1nc2cccc(-c3ccccc3)n2n1)C1CC1 [WW-001, Cyclopropanecarboxylic acid (5-phenyl-[1,2,4]triazolo[1,5-a]pyridin-2-yl)-amide]
1000 to 10000	1000 to 10000	O=C(Nc1nc2cccc(-c3cccc(Cl)c3)n2n1)C1CC1 [WW-004, Cyclopropanecarboxylic acid [5-(3-chloro-phenyl)-[1,2,4]triazolo[1,5-a]pyridin-2-yl]-amide]
100 to 1000		c1cc(-c2ccncc2)cc(-c2cccc3nc(Nc4ccc(OCCN5CCCC5)cc4)nn23)c1 [XX-466]
100 to 1000		c1cc(NCCN2CCCC2)cc(Nc2nc3cccc(-c4ccc5c(c4)OCCO5)n3n2)c1 [XX-116]
1000 to 10000	1000 to 10000	O=C(Nc1nc2cccc(Nc3ccccc3Cl)n2n1)C1CC1 [WW-128]
≤ 100	< 1000	CN(C)C/C=C/c1cccc(Nc2nc3cccc(-c4ccc5c(c4)OCCO5)n3n2)c1 [XX-083]
≤ 100	< 1000	CNCCOc1cccc(Nc2nc3cccc(-c4ccc5occc5c4)n3n2)c1 [XX-086]
100 to 1000		c1cc(-c2ccc(Cn3cccn3)cc2)n2nc(Nc3ccc(OCCN4CCCC4)cc3)nc2c1 [XX-270]
100 to 1000		CCCCNc1cccc(-c2cccc3nc(Nc4ccc(OCCN5CCCC5)cc4)nn23)c1 [XX-399]
1000 to 10000		c1cc(-c2ccc3c(c2)OCCO3)n2nc(Nc3cnc(OCCN4CCCCC4)nc3)nc2c1 [XX-098]
100 to 1000	< 1000	COc1ccc(-c2cccc3nc(Nc4ccc(OCCNCc5cccnc5)cc4)nn23)cc1 [XX-033]
100 to 1000		Cc1nc(CNc2cccc(-c3cccc4nc(Nc5ccc(OCCN6CCCC6)cc5)nn34)c2)c(C)o1 [XX-397]
100 to 1000		FC(F)(F)c1cc(-c2cccc3nc(Nc4ccc(OCCN5CCCC5)cc4)nn23)ccc1Cl [XX-291]
1000 to 10000		O=C(Nc1ccc(-c2cccc3nc(Nc4ccc(OCCN5CCCC5)cc4)nn23)cc1)c1cccc(Cl)c1 [XX-220]
1000 to 10000	1000 to 10000	COc1ccc(-c2cccc3nc(Nc4ccc5c(c4)OCCCO5)nn23)cc1 [XX-062]
100 to 1000		COc1cccc(CNc2cccc(-c3cccc4nc(Nc5ccc(OCCN6CCCC6)cc5)nn34)c2)c1 [XX-452]
1000 to 10000		Cc1ccc(-c2cccc3nc(Nc4ccc(OCCN5CCCC5)cc4)nn23)cn1 [XX-204]
100 to 1000		C#CCn1cc(-c2cccc3nc(Nc4ccc(OCCN5CCCC5)cc4)nn23)cn1 [XX-302]
1000 to 10000	1000 to 10000	Cc1ccc(-c2cccc3nc(NC(=O)C4CC4)nn23)cn1 [WW-084]

IC50 [1] [nM]	IC50 [2] [nM]	Compound
1000 to 10000		COc1ccc2nc(Nc3ccc(OCCN4CCCC4)cc3)nn2c1-c1ccc2c(c1)OCCO2 [XX-323, [5-(2,3-Dihydro-benzo[1,4]dioxin-6-yl)-6-methoxy-[1,2,4]triazolo[1,5-a]pyridin-2-yl]-[4-(2-pyrrolidin-1-yl-ethoxy)-phenyl]-amine]
100 to 1000	< 1000	COc1ccc(-c2cccc3nc(Nc4ccc5c(c4)OCCN5C)nn23)cc1 [XX-013]
100 to 1000	< 1000	COc1ccc(-c2cccc3nc(Nc4ccc(OCCN(C)C)cc4)nn23)cc1 [XX-006]
100 to 1000		O=S(=O)(Cc1cccc(C(F)(F)F)c1)n1cc(-c2cccc3nc(Nc4ccc(OCCN5CCCC5)cc4)nn23)cn1 [XX-287]
1000 to 10000	1000 to 10000	O=C(Nc1nc2cccc(-c3cnn(Cc4ccccc4)c3)n2n1)C1CC1 [WW-105]
100 to 1000		CCN(CC)CCOc1cc(Nc2nc3cccc(-c4ccc5c(c4)OCO5)n3n2)ccn1 [XX-358]
100 to 1000		Cc1ccccc1CNc1cccc(-c2cccc3nc(Nc4ccc(OCCN5CCCC5)cc4)nn23)c1 [XX-454]
1000 to 10000	1000 to 10000	COc1ccc(CNc2cccc3nc(NC(=O)C4CC4)nn23)cc1 [WW-167]
1000 to 10000	1000 to 10000	CC(C)(C)CNc1cccc2nc(NC(=O)C3CC3)nn12 [WW-080]
1000 to 10000	1000 to 10000	CC(=O)Nc1cccc(-c2cccc3nc(NC(=O)C4CC4)nn23)c1 [WW-002, Cyclopropanecarboxylic acid [5-(3-acetylamino-phenyl)-[1,2,4]triazolo [1,5-a]pyridin-2-yl]-amide]
100 to 1000	< 1000	CCOc1ccc(-c2cccc3nc(NC(=O)C4CC4)nn23)cc1 [WW-035]
100 to 1000		COc1ccc(-c2cccc3nc(Nc4ccc(N(C)C(=O)C(C)N5CCCC5)cc4)nn23)cc1 (stereo not drawn) [XX-355]
100 to 1000		C[C@@H](CN)Oc1ccc(Nc2nc3cccc(-c4ccc5c(c4)OCCO5)n3n2)cc1 [XX-141]
100 to 1000		Clc1ccc(-c2cccc3nc(Nc4ccc(OCCN5CCCC5)cc4)nn23)s1 [XX-299]
≤ 100		Cn1nccc1CNc1cccc(-c2cccc3nc(Nc4ccc(OCCN5CCCC5)cc4)nn23)c1 [XX-396]
100 to 1000		Cc1ncc(CNc2cccc(-c3cccc4nc(Nc5ccc(OCCN6CCCC6)cc5)nn34)c2)n1C [XX-449]
100 to 1000		O=C(Nc1cccc(-c2cccc3nc(Nc4ccc(OCCN5CCCC5)cc4)nn23)c1)c1cccc(Cl)c1 [XX-177]
100 to 1000		O=C(Nc1cccc(-c2cccc3nc(Nc4ccc(OCCN5CCCC5)cc4)nn23)c1)c1ccno1 [XX-192]
100 to 1000		Oc1cccc(-c2cccc3nc(Nc4ccc(OCCN5CCCC5)cc4)nn23)c1 [XX-256, 3-{2-[4-(2-Pyrrolidin-1-yl-ethoxy)-phenylamino]-[1,2,4]triazolo[1,5-a]pyridin-5-yl}-phenol]
100 to 1000		c1cc(-c2ccc3c(c2)OCCCO3)n2nc(Nc3ccc(OCCN4CCCC4)cc3)nc2c1 [XX-209]
